Results reported in patent US7056734B1, “Differentiation of non-insulin producing cells into insulin producing cells by GLP-1 or exendin-4 and uses thereof” (The United States of America as represented by the …, priority 1998, dated 2006).
Where two headings read alike, the source gives them in different places.

Key:
AR42J cells [1] = experiment: Immunocytochemistry of insulin- and glucagon-positive AR42J cells; assay type: cell-based, rat; conditions: PD98059 50 μM or PKI 300 μM added concurrently with GLP-1
Experimental: Cell culture. AR42J cells were maintained in Dulbecco's modified Eagle's medium (DMEM) supplemented with 10% fetal calf serum (FBS), 100 IU/ml penicillin, 100 μg/ml streptomycin and 2 mM glutamine. Cells from passage 23–35 were used throughout this study. Cells were routinely plated at a density of about 10^5 cells/ml in 12-well cluster dishes or on coverslips and incubated in a humidified incubator at 37° C. with 95% air and 5% CO2.
Immunocytochemistry analysis. Cells were cultured on glass coverslips, washed with phosphate buffered saline (PBS) to remove serum, and fixed with 0.5% glutaraldehyde in PBS. Cells were permeabilized with 0.2% Triton X-100 for 5 min and the rest of the procedure was carried out at room temperature in a humidified chamber. Suction was used to remove reagents between each step but drying of specimens was avoided. Sufficient reagent was used to cover each specimen (approximately 1 or 2 drops was usually adequate). The coverslips were incubated in 0.3% H2O2 in PBS for 30 min to quench endogenous peroxidase activity and washed in PBS×3 times, followed by incubation with 2% goat serum in PBS for 30 min to block non-specific binding of IgG. Excess serum was removed by blotting. The specific primary polyclonal antisera (anti-insulin 1:300; anti-glucagon 1:300) were used. Antibody was diluted in PBS containing 1% goat serum. This was applied to the coverslip and incubated at room temperature for 1 h. The coverslips were washed ×3 times in PBS, each time for 5 min, then incubated with biotinylated second antibody for 1 h and washed ×3 times with PBS. Avidin-biotin-peroxidase complex in PBS was applied for 30 min. Immunoperoxidase labeling was performed with a Vectostain ABC kit (Vector Labs, Burlingame, Calif.). After extensive washing in PBS for 4–5 times (each 5 min), the coverslips were incubated in diaminobenzidine tetrahydrochloride (DAB) in PBS, with 0.01% hydrogen peroxide for 3 min. The reaction was stopped by washing the coverslips in PBS and examined under a light microscope. To confirm specific staining, samples incubated with preabsorbed primary antibody were used as negative control, and the insulin producing cell line RIN 1046-38 cells were used as positive control for our experiments. The avidin-biotin-peroxidase (ABC) procedure was performed according to methods known in the art (Hsu et al., 1981).

AR42J cells [2] = experiment: Immunoreactive insulin release from treated AR42J cells (RIA); assay type: cell-based, rat; conditions: 200 μM PKI or PD98059 (50 μM)
Experimental: Measurement of immunoreactive insulin. AR42J cells were cultured as before in 12-well cluster plates. When cells reached 60% confluence, they were treated with GLP-1 for 3 days. At the beginning of the experiments, an aliquot of the medium was taken in order to assay the insulin accumulation in the medium. Then the cells were twice washed with Kreb's Ringer Balanced Buffer (KRBB) and incubated in the same buffer containing 10 mM glucose for another 1 h. The medium was collected and kept at −20° C. until insulin levels were assayed by RIA (See Example 1; Wang et al., Endocrinology, 1995). The cells were washed with PBS and detached with 0.25% typsin and 0.02% EDTA. The cell pellet was collected and lysed with formic acid for protein determination by the Bradford method (Bradford, 1976), using bovine-globulin as standard.

ERK = experiment: MAP kinase (ERK) activity in AR42J cells; assay type: cell-based, rat; conditions: PKI 300 μM
Experimental: MAP Kinase Activity. After treatment, 60 mm dishes of 80% confluent cells were lysed at 4° C. in lysis buffer (in mM): 50 TRIS-HCl, PH 8, 150 NaCl, 5 EDTA, 1% NP-40, 0.25% sodium deoxycholate, 1 NaF, 10 sodium pyrophosphate, 0.1 PMSF, 1 sodium orthovanadate, 20 μg/ml aprotinin, and 10 μg/ml leupeptin. The cell lysate was clarified by centrifugation at 16,000×g at 4° C. for 20 min. The clarified cell lysate was immunoprecipitated overnight at 4° C., rotating with 4.5 μg of ERK1-CT antibody and 40 μl of packed protein G+protein A agarose resin (Oncogene Research Product, Cambridge, Mass.). The immune pellet was assayed for MAPK activity using MBP as the substrate. MBP (18.6 μg) was phosphorylated at 20° C. for 10 min in a final volume of 60 μl containing 20 mM Hepes, PH 7.4, 10 mM MgCl2, 1 mM DTT, 20 uM unlabeled ATP and 40 μCi (3,000 Ci/mmol) [^32P]-ATP. The reaction was terminated by the addition of 25 μl of 3× Laemmli sample buffer and heating at 70° C. for 10 min. MAPK activity was assessed by SDS-PAGE and auto-radiography. The autoradiograms were quantified by densitometry.

AR42J cells [3] = experiment: Amylase release from AR42J cells; assay type: cell-based, rat; conditions: for effect on CCK-induced amylase release: combined with CCK (1 nM), genestein 300 μM
Experimental: Cell Culture. AR42J cells were maintained in Dulbecco's modified Eagle's medium (Gibco, Grand Island, N.Y.) (DMEM) supplemented with 10% Fetal Calf Serum, 100 IU/ml penicillin, 100 μg/ml streptomycin and 2 mM glutamine. Cells from passage 23–36 were used throughout this study.
Amylase Assay. For amylase secretion, cells were washed free of medium with 2 ml phosphate buffered saline (PBS). Incubation was then carried out in DMEM containing 15 mM HEPES, 0.2% bovine serum albumin (BSA) and 0.01% soybean trypsin inhibitor. The hormones and reagents of interest were added for 50 min at 37° C. The incubation medium was then immediately removed for amylase determination and the cells were again washed in 2 ml ice-cold PBS. […] The released amylase was expressed as the percentage of the total amylase activity of the cells.

AR42J cells [4] = experiment: Protein tyrosine phosphorylation in AR42J cells; assay type: cell-based, rat; conditions: 5 min treatment
Experimental: Tyrosine Phosphorylation Studies. […] Then the medium was removed and fresh KRBB was added, followed by placing the cell on a 37° C. hot plate for 5 min. After addition of various reagents (see FIG. 24) for 5 min the reaction was terminated by submersion of the dishes in liquid nitrogen. The frozen cells were scraped and lysed in RIPA buffer. […] The blots were developed using the ECL chemiluminescence detection system (Amersham).

AR42J cells [5] = experiment: Intracellular cAMP in AR42J cells; assay type: cell-based, rat; conditions: for intracellular cAMP levels: 1 h, GLP-1 0.1 to 100 nM, IBMX 100 nM, CCK 0.1 to 100 nM, exendin-4 0.1 to 10 nM
Experimental: Measurement of cAMP. Cells were grown in 12-well dishes and treated with hormones and reagents±IBMX as described above. They were then washed 3 times in ice-cold PBS and lysed with 1 ml ice-cold […] perchloric acid. The lysates (950 μl) were transferred to microcentrifuge tubes and the pH adjusted to 7.0 using 5 M K2CO3. After centrifugation for 5 min at 10^4 rpm, the supernatant was vacuum dried, and then recovered in 200 μl Tris/EDTA buffer. After addition of 0.15 mM Na2CO3 (50 μl) and 0.15 mM ZnSO^4 (50 μl), followed by incubation for 15 min on ice, the salt precipitate was removed by centrifugation for 15 min at 3.5×10^3 rpm and 50 μl of supernatant was assayed using a cAMP [^3] assay kit (Amersham Corp., Arlington Heights, Ill.), (Steiner et al., 1972).

AR42J cells [6] = experiment: Amylase content and CCK response of AR42J cells after 72 h treatment; assay type: cell-based, rat; conditions: dexamethasone 72 h
Experimental: Amylase Assay. For amylase determination, cells were washed free of medium with 2 ml PBS. Incubation was then carried out in DMEM containing 15 mM HEPES, 0.2% BSA and 0.01% soybean trypsin inhibitor. CCK (1 nM) was added for 50 min at 37° C. The incubation medium was then immediately removed for amylase determination and the cells were again washed in 2 ml ice-cold PBS. Lysate buffer containing (in mM) 130 Tris-HCl, 10 CaCl2, 75 NaCl, and 0.2% Triton X-100 (pH 8.0) was added to the cells and the lysates were then collected for total amylase (Ceska et al., 1969). The released amylase was expressed as the percentage of the total amylase in the cells.

AR42J cells [7] = experiment: Intracellular calcium in single AR42J cells (indo-1); assay type: cell-based, rat; conditions: for AR42J cells showing [Ca2+]i response: CCK 1 nM
Experimental: Measurement of intracellular calcium, [Ca^2+]l. AR42J cells were loaded with the fluorescent Ca^2+ probe, indo-1 acetoxymethyl ester (indo-1/AM). […] Both loading with indo-1 and the experiments were carried out at room temperature (22–24° C.). […] The emission field was restricted to a single cell. Indo-1 was excited at 350±5 nm every 5 ms, and the fluorescence emission was split into wavelength bands of 410±5 and 490±5 nm. […] The cell autofluorescence was assessed in a large number of indo-1 non-loaded cells from the same batch. […] Routinely, the cells were exposed to the test solution for 240–300s. Thereafter, the test solution was washed out, while [Ca^2+]l was monitored for additional 120–180s. The test solutions were prepared just prior to the experiment by adding the hormones in standard bathing solution.

rat acinar cells = conditions: CCK alone vs 10^−8 M exendin-4 and CCK together; Malhotra et al. 1992; cited from earlier work
AR42J cells [8] = experiment: 125I-GLP-1 binding to AR42J cells; set-up: species or system rat; dose or concentration left out as unconfirmed; conditions: displacement by cold GLP-1, n=9
Experimental: GLP-1 binding. AR42J cells were plated and cultured as described above. At the start of the binding experiment the cells were incubated with serum-free DMEM for 2 h at 37° C. Cells were then washed twice with 0.5 ml binding buffer containing (in mM) 120 NaCl, 1.2 MgSO4, 13 sodium acetate, 5 KCl, 10 Tris, pH 7.6. […] We only used freshly prepared ^125I-GLP-1 within two weeks of the reference date. At the end of the incubation, the supernatant was discarded and the cells were washed three times with ice-cold PBS. Cells were lysed with 0.5 ml 0.5 N NaOH/0.1% SDS for 30 min at room temperature. The radioactivity was measured in the lysates in an ICN Apec series gamma counter. […] This method has been used previously to characterize GLP-1 binding in CHO cells overexpressing GLP-1 receptor and in 3T3-L1 adipocytes (Montrose-Rafizadeh et al., J. Biol. Chem., 1997; Montrose-Rafizadeh et al., J Cell Physiol., 1997).

[9] = 50 min, glucagon 10 or 100 nM, GLP-1 10 nM, insulin 100 nM, 8-Br-cAMP 100 nM, vanadate 1 mM

CCCCCCCCCCCCCCCCOCC(CO)OC (racemic) [PKI, 1-o-Hexadecyl-2-o-methyl-rac-glycerol, reference compound]
effect on GLP-1-induced conversion of AR42J cells (AR42J cells [1]): conversion of the cells did not occur
insulin secretion of GLP-1-treated cells in presence of inhibitor (AR42J cells [2]): barely detected
MAPK activity with inhibitor alone (ERK): decreased MAPK activity to less than that of control cells

O=c1c(-c2ccc(O)cc2)coc2cc(O)cc(O)c12 [Genestein]
effect on CCK-induced amylase release (AR42J cells [3]; vanadate 1 mM): decreased
effect on protein tyrosine phosphorylation (AR42J cells [4]): decreased tyrosine phosphorylations induced by CCK

CC(C)Cn1c(=O)n(C)c(=O)c2[nH]cnc21 [IBMX]
intracellular cAMP levels (AR42J cells [5]): not altered

[F-].[Na+] [NaF, sodium fluoride]
effect on amylase release when given alone (AR42J cells [3]; [9]): did like-wise
effect on protein tyrosine phosphorylation (AR42J cells [4]): increased

COc1cccc(-c2cc(=O)c3ccccc3o2)c1N [PD98059, reference compound]
effect on GLP-1-induced conversion of AR42J cells (AR42J cells [1]): conversion of the cells did not occur
insulin secretion of GLP-1-treated cells in presence of inhibitor (AR42J cells [2]): barely detected

C[C@@H]1C[C@H]2[C@@H]3CCC4=CC(=O)C=C[C@]4(C)[C@@]3(F)[C@@H](O)C[C@]2(C)[C@@]1(O)C(=O)CO [dexamethasone, reference compound]
increase in amylase content vs non-dexamethasone-treated cells (AR42J cells [6]): 6.6 fold
amylase content of cells (AR42J cells [6]; non-treated cells 1.88 U/l): 12.57 U/l

[O]=[V]([O-])([O-])[O-] [vanadate]
effect on amylase release when given alone (AR42J cells [3]): increased significantly
effect on CCK-induced amylase release (AR42J cells [3]; vanadate 1 mM): increased significantly

CCK: Cholecytokinin, stimulus of amylase release, from Sigma
concentration of maximum stimulation of amylase release (AR42J cells [3]; 50 min, dexamethasone-induced AR42J cells): 10 nM
effect on amylase release when given alone (AR42J cells [3]; [9]): potent stimulus of amylase release
peak [Ca2+]i amplitude, increase over resting indo-1 fluorescence ratio (IFR) (AR42J cells [7]; single cells): 2.5–3.5 fold
AR42J cells showing [Ca2+]i response (AR42J cells [7]; single cells, glucagon 10 nM): 85%
intracellular cAMP levels (AR42J cells [5]): not altered
increase in tyrosine phosphorylation levels of 46, 66, 120 and 190 kDa proteins (AR42J cells [4]): ≥ 2 fold
total amylase released (rat acinar cells): 12%

^125I-GLP-1: radiolabelled GLP-1 (2,000 Ci/mmol, Peninsula)
specific 125I-GLP-1 binding, % of total binding (AR42J cells [8]): 27±3.2%
specific 125I-GLP-1 binding, % of total radioactivity added (AR42J cells [8]): 0.64±0.16%

glucagon: islet hormone, from Bachem
effect on amylase release when given alone (AR42J cells [3]; [9]): no effect
effect on CCK-induced amylase release (AR42J cells [3]; vanadate 1 mM): inhibited, but did not fully abolish
peak [Ca2+]i transient as percent of resting IFR level (AR42J cells [7]; glucagon 10 nM): 200–250%
effect on time course of CCK-induced [Ca2+]i transients (AR42J cells [7]; glucagon 10 nM, 8-bromo-cAMP 0.1 μM for 60–300 sec): attenuated rate of rise and a very slow rate of relaxation
AR42J cells showing [Ca2+]i response (AR42J cells [7]; single cells, glucagon 10 nM): 70%
increase in cAMP levels (AR42J cells [5]; glucagon 10 nM, presence and absence of CCK): 2 fold

insulin: islet hormone, from Sigma
effect on amylase release when given alone (AR42J cells [3]; [9]): did not influence amylase release
effect on CCK-induced amylase release (AR42J cells [3]; vanadate 1 mM): did not influence amylase release
basal or CCK (1 nM)-induced amylase release after pre-incubation (AR42J cells [3]; pre-incubation 8, 24, 48 or 72 h with GLP-1 (10 nM) and insulin (100 nM)): did not increase
effect on protein tyrosine phosphorylation (AR42J cells [4]): increased phosphorylation of 97 kDa band
